According to patent US12662478B2, “ATF6 modulators and uses thereof” (Altos Labs, Inc., priority 2019, dated 2026):
Where two headings read alike, the source gives them in different places.

Assays:
ATF6 [1] = target: T1, ATF6 (Homo sapiens, UniProt P18850); assay: ERSE ATF6-luciferase assay in absence of ER stress (U2-OS ATF6 TRE-luciferase reporter cells); format: cell-based; conditions: normalized to maximal activation with Tg; for activation at 1 µM / activation at 10 µM: U2OS, 8 h; for activation at 10 µM / ATF6 activity @ 10 μM - No Tg [%]: 10 μM test compound; for ATF6 activity @ 1 μM-No Tg [%] / ATF6 activity @ 10 μM - No Tg [%]: Table 3-3
T1 construct: endogenous in cells; host or cells: U2-OS (ATCC HTB-96) stably transduced with the Cignal Lenti ATF6 luc reporter (Qiagen #CLS-6031L)
T1 sequence (P18850 1-670): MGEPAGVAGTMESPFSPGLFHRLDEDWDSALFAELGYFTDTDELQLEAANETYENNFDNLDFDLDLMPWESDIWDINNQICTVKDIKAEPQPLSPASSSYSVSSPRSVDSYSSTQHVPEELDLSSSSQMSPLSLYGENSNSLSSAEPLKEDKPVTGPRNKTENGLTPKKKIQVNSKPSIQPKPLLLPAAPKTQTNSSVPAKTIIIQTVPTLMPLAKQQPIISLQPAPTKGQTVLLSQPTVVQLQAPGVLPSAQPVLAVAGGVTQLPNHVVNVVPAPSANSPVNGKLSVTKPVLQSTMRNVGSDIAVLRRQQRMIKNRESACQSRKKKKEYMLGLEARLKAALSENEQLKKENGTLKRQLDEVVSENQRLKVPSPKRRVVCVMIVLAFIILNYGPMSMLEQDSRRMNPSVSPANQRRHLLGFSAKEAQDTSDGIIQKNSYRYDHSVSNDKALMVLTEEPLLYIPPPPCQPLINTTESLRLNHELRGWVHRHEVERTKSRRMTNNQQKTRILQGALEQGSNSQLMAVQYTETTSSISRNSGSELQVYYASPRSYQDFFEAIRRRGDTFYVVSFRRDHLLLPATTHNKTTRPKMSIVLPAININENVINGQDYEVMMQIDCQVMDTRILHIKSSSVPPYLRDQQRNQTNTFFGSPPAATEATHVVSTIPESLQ
Procedure: (§1) To understand how exemplary compounds of the invention modulate the activity of ATF6 in absence or presence of endoplasmic reticulum (ER) stress, a Human bone osteosarcoma (U2-OS)-based TRE-luciferase reporter stable cell line was generated to determine the modulation of transcription of ATF6 target genes.
(§2) U2-OS cells were obtained from the American Type Culture Collection (ATCC HTB-96, ATCC Manassas, VA) and were cultured with growing medium containing Dulbecco's Modified Eagle's Medium (DMEM) (Cat. No.: SH30023.02, HyClone) supplemented with fetal bovine serum (FBS) 10% (Cat. No.: 16000044, Gibco) and 1% penicillin-streptomycin antibiotic cocktail (Cat. No.: SV30010, Hyclone).
(§3) Cignal Lenti ATF6 luc reporter (Qiagen #CLS-6031L) was used to produce a stable cell line in U2-OS cells (U2-OS ATF6 TRE-luciferase reporter). The lenti ATF6 reporter is a preparation of replication incompetent, VSV-g pseudotyped lentivirus particles expressing the firefly luciferase gene under the control of a minimal (m)CMV promoter and tandem repeats of the ATF6 transcriptional response element (TRE). The number of response elements as well as the intervening sequence between response elements has been experimentally optimized to maximize the signal to noise ratio.
(§4) Exemplary compounds of the invention and reference compounds were prepared from powder as 10 mM stock solutions in dimethyl sulfoxide (DMSO; Cat. No. #D2650, Sigma Aldrich) and stored at −80° C. in presence of N2 neutral atmosphere.
(§5) For the primary screening, 40,000 U2-OS ATF6 TRE-luciferase reporter cells were plated in poly-D-lysine (Cat. No.: P2636, Sigma) pre-coated white 96-well plates (Thermo Scientific Nunc #136101) with 100 μL of growing medium. Cells were incubated in humidified chambers for 24 hr.
For testing exemplary compounds in absence of ER-stress, cells were treated for 8 hr with 100 μL growing medium containing either vehicle (DMSO), 1 or 10 μM test compound or 0.1 μM Tg. The final concentration of DMSO in each well was kept at 0.3%. Plates were incubated in humidified chambers.
After 8 hr of incubation, plates were cooled down to room temperature for 10 min prior to luciferase assays. Luciferase reactions were performed as above. Luminescence was read by integration of 1 s with a gain of 110 in a Synergy 4 Microplate reader. All measurements were carried out in triplicate.
The average activity determined from the wells containing vehicle only (DMSO, 0% of ATF6 activity) was used as blank and subtracted from the rest of measurements. The percentage of modulation of exemplary compound was calculated by normalizing values to potential maximal activation with Tg.
ATF6 activities of exemplary compounds at 1 and 10 μM in absence of Tg-induced ER stress in the U2-OS ATF6 TRE-luciferase reporter cells were determined and are shown in Table 3-2, and Table 3-3.

ATF6 [2] = target: T1, ATF6; assay: ERSE ATF6-luciferase assay in presence of Tg-induced ER stress (U2-OS ATF6 TRE-luciferase reporter cells); format: cell-based; conditions: in presence of ER stress (thapsigargin), Tg only = 100%; for ATF6 activity @ 1 μM [%] / activity at 1 µM: 1 μM test compound; for ATF6 activity @ 1 μM [%] / ATF6 activity @ 10 μM [%]: 8 hr; for activity at 10 µM / activity at 1 µM: U2OS, 8 h; for activity at 10 µM / ATF6 activity @ 10 μM [%]: 10 μM test compound
Procedure: as §1, §2, §3, §4, §5
For testing exemplary compounds in presence of ER-stress, cells were pre-treated for 30 min with 50 μL growing medium containing either vehicle (DMSO), 1 or 10 μM test compound. After this pre-incubation, 50 μL of a solution containing 0.2 μM of the ER stress-inducer thapsigargin (Tg) was added to the appropriate wells. The Tg solution also contains vehicle or test compounds at 1 or 10 μM as indicated. The final concentration of DMSO in each well was kept at 0.3%. Plates were incubated for 8 hr in humidified chambers.
After the 8 hr incubation, plates were cooled down to room temperature for 10 min prior to the luciferase assays. Luciferase reactions were performed using Luciferase Assay System (Cat. No.: E4550, Promega). Briefly, each well was washed with 100 μl of PBS 1× and, then, 20 μl of lysis reagent was added into each well. Plates were shaken for 10 min and, then, 50 μl of Luciferase Assay Reagent was added to each well. Luminescence was determined by integration of 1 s with a gain of 110 in a Synergy 4 Microplate reader. All measurements were carried out in triplicate.
The average activity determined from the wells containing vehicle only (DMSO, 0% of ATF6 activity) was used as blank and subtracted from the rest of measurements. The average activity determined from the wells containing Tg only was used as 100% of ATF6 activity. The percentage of modulation of exemplary compounds was calculated by normalizing values to potential maximal activation with Tg.
ATF6 activities of exemplary compounds at 1 and 10 μM in presence Tg-induced ER stress tested in the U2-OS ATF6 TRE-luciferase reporter cells were determined and are shown in Table 2-2 and Table 3-2.

[3] = 1 μM test compound, in absence of ER stress (no Tg), Table 3-3, read-out: ATF6 activity @ 1 μM-No Tg [%]
[4] = in absence of ER stress (no Tg), Table 3-3, read-out: ATF6 activity @ 10 μM - No Tg [%]
[5] = 1 μM test compound, in absence of ER stress (no Tg), 8 hr
[6] = in absence of ER stress (no Tg), 8 hr

Row | SMILES | activation at 1 µM (ATF6 [1]; [3]) [%] | ATF6 activity @ 1 μM [%] (ATF6 [2]; Table 2-3) | activity at 10 µM (ATF6 [2]; Table 2-3) [%] | ATF6 activity @ 1 μM-No Tg [%] (ATF6 [1]; [5]) | ATF6 activity @ 10 μM - No Tg [%] (ATF6 [1]; [6]) | ATF6 activity @ 10 μM [%] (ATF6 [2]; Table 2-3) | also measured
1 | CC(C1CCCC1)n1cc(NC(=O)c2cc(-c3ccco3)on2)cn1 (single isomer, unassigned) [Compound 3-17, N-(1-(1-cyclopentylethyl)-1H-pyrazol-4-yl)-5-(furan-2-yl)isoxazole-3-carboxamide] | 0 to 25 | ++ (++ refers to 125% < % activity < 150% at 1 or 10 μM test compound) | 125 to 150 | – | – | – | activation at 10 µM (ATF6 [1]; [4]): 0 to 25%
2 | CC(C1CCCC1)n1cc(NC(=O)c2cc(-c3ccco3)on2)cn1 (single isomer, unassigned) [Compound 3-18, N-(1-(1-cyclopentylethyl)-1H-pyrazol-4-yl)-5-(furan-2-yl)isoxazole-3-carboxamide] | – | + (+ refers to 100% < % activity < 125% at 1 or 10 μM) | – | + (+ refers to 0% < % activity < 25% at 1 or 10 μM test compound) | + (+ refers to 0% < % activity < 25% at 1 or 10 μM test compound) | ++ (++ refers to 125% < % activity < 150% at 1 or 10 μM test compound) | –
3 | O=C(Nc1cnn(C2CCOC2)c1)c1cc(-c2ccccn2)on1 (single isomer, unassigned) [Compound 3-20, 5-(pyridin-2-yl)-N-(1-(tetrahydrofuran-3-yl)-1H-pyrazol-4-yl)isoxazole-3-carboxamide] | 0 to 25 | + (+ refers to 100% < % activity < 125% at 1 or 10 μM) | > 150 | – | + (+ refers to 0% < % activity < 25% at 1 or 10 μM test compound) | – | –
4 | O=C(Nc1cnn(C2CCOC2)c1)c1cc(-c2ccccn2)on1 (single isomer, unassigned) [Compound 3-21, 5-(pyridin-2-yl)-N-(1-(tetrahydrofuran-3-yl)-1H-pyrazol-4-yl)isoxazole-3-carboxamide] | – | +++ (+++ refers to >150% at 1 or 10 μM test compound) | – | + (+ refers to 0% < % activity < 25% at 1 or 10 μM test compound) | ++ (++ refers to 25% < % activity < 50% at 1 or 10 μM test compound) | +++ (+++ refers to >150% at 1 or 10 μM test compound) | –
5 | O=C(Nc1cnn(C2CCOC2)c1)c1cc(-c2cccs2)on1 (single isomer, unassigned) [Compound 3-22, N-(1-(tetrahydrofuran-3-yl)-1H-pyrazol-4-yl)-5-(thiophen-2-yl)isoxazole-3-carboxamide] | – | ++ (++ refers to 125% < % activity < 150% at 1 or 10 μM test compound) | > 150 | + (+ refers to 0% < % activity < 25% at 1 or 10 μM test compound) | ++ (++ refers to 25% < % activity < 50% at 1 or 10 μM test compound) | – | –
6 | O=C(Nc1cnn(C2CCOC2)c1)c1cc(-c2cccs2)on1 (single isomer, unassigned) [Compound 3-23, N-(1-(tetrahydrofuran-3-yl)-1H-pyrazol-4-yl)-5-(thiophen-2-yl)isoxazole-3-carboxamide] | – | +++ (+++ refers to >150% at 1 or 10 μM test compound) | – | ++ (++ refers to 25% < % activity < 50% at 1 or 10 μM test compound) | +++ (+++ refers to % activity >50 % at 1 or 10 μM test compound) | +++ (+++ refers to >150% at 1 or 10 μM test compound) | –
7 | O=C(Nc1cnn(Cc2ccc(C(F)(F)F)cc2)c1)c1cc(-c2ccco2)on1 [Ceapin-A8, reference compound] | – | + (+ refers to 100% < % activity < 125% at 1 or 10 μM) | – | – | – | − (− refers to 75% < % activity < 100% at 1 or 10 μM) | ATF6 activity @ 1 μM [%] (ATF6 [1]; 1 μM test compound, in absence of ER stress, 8 hr, Table 3-2): + (+ refers to 0% < % activity < 25% at 1 or 10 μM test compound); ATF6 activity @ 1 μM [%] (ATF6 [2]; Table 2-2): + (+ refers to 100% < % activity < 125% at 1 or 10 μM); ATF6 activity @ 10 μM [%] (ATF6 [2]; Table 2-2): − (− refers to 75% < % activity < 100% at 1 or 10 μM)
8 | CC(c1c(Cl)cccc1Cl)n1cc(C#Cc2nnc(-c3ccccn3)s2)cn1 (stereo not shown) [Compound 2-20, 2-((1-(1-(2,6-dichlorophenyl)ethyl)-1H-pyrazol-4-yl)ethynyl)-5-(pyridin-2-yl)-1,3,4-thiadiazole] | – | – | – | – | – | – | activation at 1 µM (ATF6 [1]; 1 μM test compound, in absence of ER stress, Table 3-2, read-out: ATF6 activity @ 1 μM [%]): 0 to 25%; activation at 10 µM (ATF6 [1]; in absence of ER stress, Table 3-2, read-out: ATF6 activity @ 10 μM [%]): 0 to 25%; activity at 1 µM (ATF6 [2]; Table 2-2): 75 to 100%; activity at 10 µM (ATF6 [2]; Table 2-2): 100 to 125%
9 | O=C(Nc1cnn(C2CCCC2)c1)c1cc(-c2ccco2)on1 [Compound 3-1, N-(1-cyclopentyl-1H-pyrazol-4-yl)-5-(furan-2-yl)isoxazole-3-carboxamide] | 0 to 25 | – | > 150 | – | – | – | activation at 10 µM (ATF6 [1]; [4]): 0 to 25%; activity at 1 µM (ATF6 [2]; Table 2-3): > 150%
